Data reported in patent publication US10173971B2, “Picolinamides with fungicidal activity” (DOW AGROSCIENCES LLC, priority 2014, dated 2019).
Like-named read-outs stand apart in the source and are kept apart here.

Legend:
Puccinia triticina = assay: Fungicidal activity: wheat brown rust (PUCCRT), wheat seedlings, booth sprayer to run-off or track spray; assay type: in vivo; conditions: for pest or weed control at 121.5 g/ha: Low-Volume Cereal Activity at 121.5 g/H; for pest or weed control at 100 ppm: High-Volume Cereal Activity at 100 ppm
Method: All fungicides were evaluated using the aforementioned method for their activity vs. all target diseases. Wheat leaf blotch and brown rust activity were also evaluated using track spray applications, in which case the fungicides were formulated as EC formulations, containing 0.1% Trycol 5941 in the spray solutions. Wheat plants (variety Yuma) were grown from seed in a greenhouse in 50% mineral soil/50% soil-less Metro mix until the first leaf was fully emerged, with 7-10 seedlings per pot. These plants were inoculated with an aqueous spore suspension of Puccinia triticina either prior to or after fungicide treatments. […] The plants were then transferred to a greenhouse set at 24° C. for disease to develop. Fungicide formulation, application and disease assessment followed the procedures as described in the Example A.

Zymoseptoria tritici = assay: Fungicidal activity: leaf blotch of wheat (SEPTTR), wheat seedlings, booth sprayer to run-off or track spray; assay type: in vivo; conditions: for pest or weed control at 121.5 g/ha: Low-Volume Cereal Activity at 121.5 g/H; for pest or weed control at 100 ppm: High-Volume Cereal Activity at 100 ppm
Method: All fungicides were evaluated using the aforementioned method for their activity vs. all target diseases. Wheat leaf blotch and brown rust activity were also evaluated using track spray applications, in which case the fungicides were formulated as EC formulations, containing 0.1% Trycol 5941 in the spray solutions. Wheat plants (variety Yuma) were grown from seed in a greenhouse in 50% mineral soil/50% soil-less Metro mix until the first leaf was fully emerged, with 7-10 seedlings per pot. These plants were inoculated with an aqueous spore suspension of Zymoseptoria tritici either prior to or after fungicide treatments. After inoculation the plants were kept in 100% relative humidity (one day in a dark dew chamber followed by two to three days in a lighted dew chamber at 20° C.) to permit spores to germinate and infect the leaf. The plants were then transferred to a greenhouse set at 20° C. for disease to develop. When disease symptoms were fully expressed on the 1st leaves of untreated plants, infection levels were assessed on a scale of 0 to 100 percent disease severity. Percent disease control was calculated using the ratio of disease severity on treated plants relative to untreated plants.

[1] = 24 h, 1 Day Protectant, read-out: PUCCRT 1DP
[2] = 24 h, 1 Day Protectant, read-out: SEPTTR 1DP
[3] = 72 h, 3 Day Curative, read-out: SEPTTR 3DC
[4] = 72 h, 3 Day Curative, read-out: PUCCRT 3DC
[5] = 3DC (Day Curative), read-out: PUCCRT 3DC
[6] = 3DC (Day Curative), read-out: SEPTTR 3DC

COc1ccnc(C(=O)N[C@@H](C)C(=O)O[C@@H](C)[C@H](Cc2ccc(F)cc2)C(C)(C)OCc2ccccc2)c1OC(C)=O [compound 229]
pest or weed control at 121.5 g/ha (Puccinia triticina; [1]): 0 to 80% | pest or weed control at 121.5 g/ha (Zymoseptoria tritici; [2]): 80 to 100% | pest or weed control at 121.5 g/ha (Zymoseptoria tritici; [3]): 0 to 80%

CC[C@H](Oc1ccccc1)[C@@H](Cc1ccccc1)[C@H](C)OC(=O)[C@H](C)NC(=O)c1nccc(OC)c1OC(C)=O [compound 193]
pest or weed control at 121.5 g/ha (Puccinia triticina; [1]): 80 to 100% | pest or weed control at 121.5 g/ha (Puccinia triticina; [4]): 80 to 100% | pest or weed control at 121.5 g/ha (Zymoseptoria tritici; [2]): 80 to 100% | pest or weed control at 121.5 g/ha (Zymoseptoria tritici; [3]): 0 to 80%

CCC[C@@H](Cc1ccccc1)[C@H](C)OC(=O)[C@H](C)NC(=O)c1nccc(OC)c1OCOC(C)=O [compound 184]
pest or weed control at 121.5 g/ha (Puccinia triticina; [1]): 80 to 100% | pest or weed control at 121.5 g/ha (Puccinia triticina; [4]): 80 to 100% | pest or weed control at 121.5 g/ha (Zymoseptoria tritici; [2]): 80 to 100% | pest or weed control at 121.5 g/ha (Zymoseptoria tritici; [3]): 80 to 100%

CCCOC[C@@H](Cc1ccccc1)[C@H](C)OC(=O)C(C)(C)NC(=O)c1nccc(OC)c1OCOC(C)=O [compound 171]
pest or weed control at 100 ppm (Puccinia triticina; [5]): 0 to 80% | pest or weed control at 100 ppm (Zymoseptoria tritici; [2]): 0 to 80% | pest or weed control at 100 ppm (Zymoseptoria tritici; [6]): 0 to 80%

CCCC[C@H](c1ccccc1)[C@H](C)OC(=O)[C@H](C)NC(=O)c1nccc(OC)c1O [compound 120]
pest or weed control at 100 ppm (Puccinia triticina; [5]): 0 to 80% | pest or weed control at 100 ppm (Zymoseptoria tritici; [6]): 0 to 80%

COc1ccnc(C(=O)N[C@@H](C)C(=O)OC(C)C(Cc2cccc(F)c2)Cc2cccc(F)c2)c1O (stereo partly shown) [compound 150]
pest or weed control at 100 ppm (Puccinia triticina; [1]): 80 to 100% | pest or weed control at 100 ppm (Zymoseptoria tritici; [2]): 80 to 100%

COc1ccc(C[C@H](COc2ccc(F)cc2F)[C@H](C)OC(=O)[C@H](C)NC(=O)c2nccc(OC)c2OCOC(C)=O)cc1 [compound 282]
pest or weed control at 121.5 g/ha (Puccinia triticina; [1]): 80 to 100% | pest or weed control at 121.5 g/ha (Zymoseptoria tritici; [2]): 0 to 80% | pest or weed control at 121.5 g/ha (Zymoseptoria tritici; [3]): 0 to 80%

CC[C@H](Cc1ccc(C(F)(F)F)cc1)[C@@H](Cc1ccc(F)cc1)[C@H](C)OC(=O)[C@H](C)NC(=O)c1nccc(OC)c1OC(C)=O [compound 182]
pest or weed control at 121.5 g/ha (Puccinia triticina; [1]): 0 to 80% | pest or weed control at 121.5 g/ha (Puccinia triticina; [4]): 0 to 80%

COc1ccnc(C(=O)N[C@@H](C)C(=O)O[C@@H](C)[C@H](Cc2ccc(F)cc2)C(C)(C)OCc2ccccc2)c1OCOC(C)=O [compound 241]
pest or weed control at 121.5 g/ha (Puccinia triticina; [1]): 80 to 100% | pest or weed control at 121.5 g/ha (Puccinia triticina; [4]): 0 to 80% | pest or weed control at 121.5 g/ha (Zymoseptoria tritici; [2]): 80 to 100% | pest or weed control at 121.5 g/ha (Zymoseptoria tritici; [3]): 80 to 100%

COc1ccnc(C(=O)N[C@@H](C)C(=O)O[C@@H](C)[C@H](Cc2ccc(F)cc2)c2ccccc2)c1O [compound 129]
pest or weed control at 100 ppm (Puccinia triticina; [1]): 80 to 100% | pest or weed control at 100 ppm (Puccinia triticina; [5]): 0 to 80% | pest or weed control at 100 ppm (Zymoseptoria tritici; [2]): 80 to 100% | pest or weed control at 100 ppm (Zymoseptoria tritici; [6]): 0 to 80%

COc1ccnc(C(=O)N[C@@H](C)C(=O)O[C@@H](C)[C@@H](COc2ccc(Cl)cc2Cl)Cc2ccccc2)c1O [compound 126]
pest or weed control at 100 ppm (Puccinia triticina; [1]): 0 to 80% | pest or weed control at 100 ppm (Zymoseptoria tritici; [2]): 0 to 80%

COc1ccnc(C(=O)N[C@@H](C)C(=O)O[C@@H](C)[C@H](Cc2ccc3ccccc3c2)c2ccccc2)c1O [compound 130]
pest or weed control at 100 ppm (Puccinia triticina; [1]): 80 to 100% | pest or weed control at 100 ppm (Zymoseptoria tritici; [2]): 80 to 100% | pest or weed control at 100 ppm (Zymoseptoria tritici; [6]): 0 to 80%

C=C[C@H](Cc1ccc(C(F)(F)F)cc1)[C@@H](Cc1ccc(F)cc1)[C@H](C)OC(=O)[C@H](COC)NC(=O)c1nccc(OC)c1OC(C)=O [compound 178]
pest or weed control at 121.5 g/ha (Puccinia triticina; [1]): 0 to 80% | pest or weed control at 121.5 g/ha (Puccinia triticina; [4]): 0 to 80% | pest or weed control at 121.5 g/ha (Zymoseptoria tritici; [2]): 0 to 80% | pest or weed control at 121.5 g/ha (Zymoseptoria tritici; [3]): 0 to 80%

COc1ccnc(C(=O)N[C@@H](C)C(=O)OC(C)C(Cc2ccccc2)Cc2ccccc2)c1OC(C)=O (stereo partly shown) [compound 260]
pest or weed control at 121.5 g/ha (Puccinia triticina; [1]): 80 to 100% | pest or weed control at 121.5 g/ha (Puccinia triticina; [4]): 0 to 80% | pest or weed control at 121.5 g/ha (Zymoseptoria tritici; [2]): 80 to 100% | pest or weed control at 121.5 g/ha (Zymoseptoria tritici; [3]): 0 to 80%

CCCOC[C@@H](Cc1ccccc1)[C@H](C)OC(=O)[C@H](CC)NC(=O)c1nccc(OC)c1O [compound 98]
pest or weed control at 100 ppm (Puccinia triticina; [1]): 80 to 100% | pest or weed control at 100 ppm (Puccinia triticina; [5]): 80 to 100% | pest or weed control at 100 ppm (Zymoseptoria tritici; [2]): 80 to 100% | pest or weed control at 100 ppm (Zymoseptoria tritici; [6]): 80 to 100%

CCOCC(=O)OCOc1c(OC)ccnc1C(=O)N[C@@H](C)C(=O)O[C@@H](C)[C@H](Cc1ccc(F)cc1)C(C)(C)OC [compound 238]
pest or weed control at 121.5 g/ha (Puccinia triticina; [1]): 80 to 100% | pest or weed control at 121.5 g/ha (Puccinia triticina; [4]): 0 to 80% | pest or weed control at 121.5 g/ha (Zymoseptoria tritici; [2]): 0 to 80% | pest or weed control at 121.5 g/ha (Zymoseptoria tritici; [3]): 0 to 80%

CCCOC[C@@H](Cc1ccc(OC)c(Cc2ccccc2)c1)[C@H](C)OC(=O)[C@H](C)NC(=O)c1nccc(OC)c1O [compound 145]
pest or weed control at 100 ppm (Puccinia triticina; [1]): 0 to 80% | pest or weed control at 100 ppm (Zymoseptoria tritici; [2]): 80 to 100% | pest or weed control at 100 ppm (Zymoseptoria tritici; [6]): 0 to 80%

CC[C@@H](Oc1ccccc1)[C@@H](Cc1ccccc1)[C@H](C)OC(=O)[C@H](C)NC(=O)c1nccc(OC)c1OCOC(C)=O [compound 192]
pest or weed control at 121.5 g/ha (Puccinia triticina; [1]): 80 to 100% | pest or weed control at 121.5 g/ha (Puccinia triticina; [4]): 80 to 100% | pest or weed control at 121.5 g/ha (Zymoseptoria tritici; [2]): 80 to 100% | pest or weed control at 121.5 g/ha (Zymoseptoria tritici; [3]): 80 to 100%

COc1cccc(CC(Cc2cccc(OC)c2)[C@H](C)OC(=O)[C@H](C)NC(=O)c2nccc(OC)c2OCOC(C)=O)c1 [compound 274]
pest or weed control at 121.5 g/ha (Puccinia triticina; [1]): 80 to 100% | pest or weed control at 121.5 g/ha (Puccinia triticina; [4]): 0 to 80% | pest or weed control at 121.5 g/ha (Zymoseptoria tritici; [2]): 0 to 80%

COc1ccnc(C(=O)N[C@@H](C)C(=O)OC(C)C(Cc2ccccc2)Cc2ccccc2)c1O (stereo partly shown) [compound 147]
pest or weed control at 100 ppm (Puccinia triticina; [1]): 80 to 100% | pest or weed control at 100 ppm (Zymoseptoria tritici; [2]): 80 to 100%

COC(=O)[C@@H](Cc1ccccc1)[C@H](C)OC(=O)[C@H](C)NC(=O)c1nccc(OC)c1OC(C)=O [compound 186]
pest or weed control at 121.5 g/ha (Zymoseptoria tritici; [2]): 0 to 80%

CC[C@H](Cc1ccc(C(F)(F)F)cc1)[C@@H](Cc1ccc(F)cc1)[C@H](C)OC(=O)CNC(=O)c1nccc(OC)c1OC(C)=O [compound 183]
pest or weed control at 121.5 g/ha (Puccinia triticina; [1]): 0 to 80%

COc1ccnc(C(=O)N[C@@H](C)C(=O)O[C@@H](C)[C@H](Cc2ccccc2)C(C)C)c1O [compound 122]
pest or weed control at 100 ppm (Puccinia triticina; [1]): 0 to 80%

COc1ccnc(C(=O)N[C@@H](C)C(=O)O[C@@H](C)[C@H](Cc2ccccc2)c2ccccc2)c1O [compound 119]
pest or weed control at 100 ppm (Zymoseptoria tritici; [6]): 0 to 80%

COc1cccc(CC(Cc2cccc(OC)c2)[C@H](C)OC(=O)[C@H](C)NC(=O)c2nccc(OC)c2O)c1 [compound 152]
pest or weed control at 100 ppm (Puccinia triticina; [1]): 80 to 100% | pest or weed control at 100 ppm (Puccinia triticina; [5]): 0 to 80%

CCCOC[C@@H](Cc1ccc(OC)cc1)[C@H](C)OC(=O)[C@H](C)NC(=O)c1nccc(OC)c1OCOC(C)=O [compound 256]
pest or weed control at 121.5 g/ha (Puccinia triticina; [1]): 80 to 100% | pest or weed control at 121.5 g/ha (Puccinia triticina; [4]): 80 to 100%

CC[C@H](Cc1ccc(C(F)(F)F)cc1)[C@@H](Cc1ccc(F)cc1)[C@H](C)OC(=O)[C@H](COC)NC(=O)c1nccc(OC)c1O [compound 110]
pest or weed control at 100 ppm (Puccinia triticina; [1]): 80 to 100%

C=C[C@H](Cc1ccc(C(F)(F)F)cc1)[C@@H](Cc1ccc(F)cc1)[C@H](C)OC(=O)[C@H](COC)NC(=O)c1nccc(OC)c1O [compound 107]
pest or weed control at 100 ppm (Puccinia triticina; [1]): 0 to 80%

CCCOC[C@@H](Cc1ccccc1)[C@H](C)OC(=O)CNC(=O)c1nccc(OC)c1OC(C)=O [compound 176]
pest or weed control at 121.5 g/ha (Puccinia triticina; [1]): 80 to 100% | pest or weed control at 121.5 g/ha (Puccinia triticina; [4]): 0 to 80%

COc1ccnc(C(=O)N[C@@H](C)C(=O)O[C@@H](C)[C@H](Cc2ccc(Cl)c(Cl)c2)c2ccccc2)c1OC(=O)C(C)C [compound 217]
pest or weed control at 121.5 g/ha (Zymoseptoria tritici; [2]): 0 to 80% | pest or weed control at 121.5 g/ha (Zymoseptoria tritici; [3]): 0 to 80%

C=C[C@H](Cc1ccc(C(F)(F)F)cc1)[C@@H](Cc1ccc(F)cc1)[C@H](C)OC(=O)CNC(=O)c1nccc(OC)c1O [compound 109]
pest or weed control at 100 ppm (Puccinia triticina; [1]): 0 to 80%
